Data on 11 molecules can be found in patent US20090318351A1, “METHOD OF TREATING ACUTE ST-ELEVATION MYOCARDIAL INFARCTION WITH A DELTA PKC ANTAGONIST” (priority 2008, published 2009).

A short description of this series: Plasma stability of capped peptides (KAI-9706 modified at amino and carboxy termini). The conditions noted are these: rat. On the procedure: Plasma stability of capped peptides was compared. KAI-9706 was modified step-wise at its amino and carboxy termini. Plasma stability as measured by the percent of peptide composition remaining after 15 minutes.
Turning to `CC[C@H](C)[C@H](NC(=O)[C@@H]1CCCN1C(=O)[C@H](C)NC(=O)[C@H](CC(=O)O)NC(=O)[C@H](Cc1c[nH]cn1)NC(=O)[C@@H](N)CSSC[C@H](N)C(=O)N[C@@H](Cc1ccc(O)cc1)C(=O)NCC(=O)N[C@@H](CCCNC(=N)N)C(=O)N[C@@H](CCCCN)C(=O)N[C@@H](CCCCN)C(=O)N[C@@H](CCCNC(=N)N)C(=O)N[C@@H](CCCNC(=N)N)C(=O)N[C@@H](CCC(N)=O)C(=O)N[C@@H](CCCNC(=N)N)C(=O)N[C@@H](CCCNC(=N)N)C(=O)N[C@@H](CCCNC(=N)N)C(N)=O)C(=O)NCC(=O)N[C@@H](Cc1ccc(O)cc1)C(=O)N[C@@H](CC(=O)O)C(=O)O` [KAI-9706 carrier H—NH2 cargo H—OH], the fraction remaining at 0.25 h stood at 60%.

As to `CC[C@H](C)[C@H](NC(=O)[C@@H]1CCCN1C(=O)[C@H](C)NC(=O)[C@H](CC(=O)O)NC(=O)[C@H](Cc1c[nH]cn1)NC(=O)[C@H](CSSC[C@H](N)C(=O)N[C@@H](Cc1ccc(O)cc1)C(=O)NCC(=O)N[C@@H](CCCNC(=N)N)C(=O)N[C@@H](CCCCN)C(=O)N[C@@H](CCCCN)C(=O)N[C@@H](CCCNC(=N)N)C(=O)N[C@@H](CCCNC(=N)N)C(=O)N[C@@H](CCC(N)=O)C(=O)N[C@@H](CCCNC(=N)N)C(=O)N[C@@H](CCCNC(=N)N)C(=O)N[C@@H](CCCNC(=N)N)C(=O)O)NC(C)=O)C(=O)NCC(=O)N[C@@H](Cc1ccc(O)cc1)C(=O)N[C@@H](CC(=O)O)C(=O)O` [KAI-9706 carrier H—OH cargo Ac—OH], the fraction remaining at 0.25 h amounted to 1%.

For the molecule `CC[C@H](C)[C@H](NC(=O)[C@@H]1CCCN1C(=O)[C@H](C)NC(=O)[C@H](CC(=O)O)NC(=O)[C@H](Cc1c[nH]cn1)NC(=O)[C@H](CSSC[C@H](N)C(=O)N[C@@H](Cc1ccc(O)cc1)C(=O)NCC(=O)N[C@@H](CCCNC(=N)N)C(=O)N[C@@H](CCCCN)C(=O)N[C@@H](CCCCN)C(=O)N[C@@H](CCCNC(=N)N)C(=O)N[C@@H](CCCNC(=N)N)C(=O)N[C@@H](CCC(N)=O)C(=O)N[C@@H](CCCNC(=N)N)C(=O)N[C@@H](CCCNC(=N)N)C(=O)N[C@@H](CCCNC(=N)N)C(N)=O)NC(C)=O)C(=O)NCC(=O)N[C@@H](Cc1ccc(O)cc1)C(=O)N[C@@H](CC(=O)O)C(N)=O` [KAI-9706 carrier H—NH2 cargo Ac—NH2], the amount remaining at 0.25 h came to 51%. In the case of `CC[C@H](C)[C@H](NC(=O)[C@@H]1CCCN1C(=O)[C@H](C)NC(=O)[C@H](CC(=O)O)NC(=O)[C@H](Cc1c[nH]cn1)NC(=O)[C@@H](N)CSSC[C@H](N)C(=O)N[C@@H](Cc1ccc(O)cc1)C(=O)NCC(=O)N[C@@H](CCCNC(=N)N)C(=O)N[C@@H](CCCCN)C(=O)N[C@@H](CCCCN)C(=O)N[C@@H](CCCNC(=N)N)C(=O)N[C@@H](CCCNC(=N)N)C(=O)N[C@@H](CCC(N)=O)C(=O)N[C@@H](CCCNC(=N)N)C(=O)N[C@@H](CCCNC(=N)N)C(=O)N[C@@H](CCCNC(=N)N)C(=O)O)C(=O)NCC(=O)N[C@@H](Cc1ccc(O)cc1)C(=O)N[C@@H](CC(=O)O)C(N)=O` [KAI-9706 carrier H—OH cargo H—NH2], the fraction remaining at 0.25 h was 0%. The value for `CC[C@H](C)[C@H](NC(=O)[C@@H]1CCCN1C(=O)[C@H](C)NC(=O)[C@H](CC(=O)O)NC(=O)[C@H](Cc1c[nH]cn1)NC(=O)[C@H](CSSC[C@H](NC(C)=O)C(=O)N[C@@H](Cc1ccc(O)cc1)C(=O)NCC(=O)N[C@@H](CCCNC(=N)N)C(=O)N[C@@H](CCCCN)C(=O)N[C@@H](CCCCN)C(=O)N[C@@H](CCCNC(=N)N)C(=O)N[C@@H](CCCNC(=N)N)C(=O)N[C@@H](CCC(N)=O)C(=O)N[C@@H](CCCNC(=N)N)C(=O)N[C@@H](CCCNC(=N)N)C(=O)N[C@@H](CCCNC(=N)N)C(N)=O)NC(C)=O)C(=O)NCC(=O)N[C@@H](Cc1ccc(O)cc1)C(=O)N[C@@H](CC(=O)O)C(=O)O` [KAI-9706 carrier Ac—NH2 cargo Ac—OH] was 93%; that for `CC[C@H](C)[C@H](NC(=O)[C@@H]1CCCN1C(=O)[C@H](C)NC(=O)[C@H](CC(=O)O)NC(=O)[C@H](Cc1c[nH]cn1)NC(=O)[C@H](CSSC[C@H](NC(C)=O)C(=O)N[C@@H](Cc1ccc(O)cc1)C(=O)NCC(=O)N[C@@H](CCCNC(=N)N)C(=O)N[C@@H](CCCCN)C(=O)N[C@@H](CCCCN)C(=O)N[C@@H](CCCNC(=N)N)C(=O)N[C@@H](CCCNC(=N)N)C(=O)N[C@@H](CCC(N)=O)C(=O)N[C@@H](CCCNC(=N)N)C(=O)N[C@@H](CCCNC(=N)N)C(=O)N[C@@H](CCCNC(=N)N)C(=O)O)NC(C)=O)C(=O)NCC(=O)N[C@@H](Cc1ccc(O)cc1)C(=O)N[C@@H](CC(=O)O)C(N)=O` [KAI-9706 carrier Ac—OH cargo Ac—NH2] was 48%. With `CC[C@H](C)[C@H](NC(=O)[C@@H]1CCCN1C(=O)[C@H](C)NC(=O)[C@H](CC(=O)O)NC(=O)[C@H](Cc1c[nH]cn1)NC(=O)[C@@H](N)CSSC[C@H](NC(C)=O)C(=O)N[C@@H](Cc1ccc(O)cc1)C(=O)NCC(=O)N[C@@H](CCCNC(=N)N)C(=O)N[C@@H](CCCCN)C(=O)N[C@@H](CCCCN)C(=O)N[C@@H](CCCNC(=N)N)C(=O)N[C@@H](CCCNC(=N)N)C(=O)N[C@@H](CCC(N)=O)C(=O)N[C@@H](CCCNC(=N)N)C(=O)N[C@@H](CCCNC(=N)N)C(=O)N[C@@H](CCCNC(=N)N)C(N)=O)C(=O)NCC(=O)N[C@@H](Cc1ccc(O)cc1)C(=O)N[C@@H](CC(=O)O)C(=O)O` [KAI-9706 carrier Ac—NH2 cargo H—OH] the figure was 92%. With `CC[C@H](C)[C@H](NC(=O)[C@@H]1CCCN1C(=O)[C@H](C)NC(=O)[C@H](CC(=O)O)NC(=O)[C@H](Cc1c[nH]cn1)NC(=O)[C@H](CSSC[C@H](NC(C)=O)C(=O)N[C@@H](Cc1ccc(O)cc1)C(=O)NCC(=O)N[C@@H](CCCNC(=N)N)C(=O)N[C@@H](CCCCN)C(=O)N[C@@H](CCCCN)C(=O)N[C@@H](CCCNC(=N)N)C(=O)N[C@@H](CCCNC(=N)N)C(=O)N[C@@H](CCC(N)=O)C(=O)N[C@@H](CCCNC(=N)N)C(=O)N[C@@H](CCCNC(=N)N)C(=O)N[C@@H](CCCNC(=N)N)C(N)=O)NC(C)=O)C(=O)NCC(=O)N[C@@H](Cc1ccc(O)cc1)C(=O)N[C@@H](CC(=O)O)C(N)=O` [KAI-9706 carrier Ac—NH2 cargo Ac—NH2] the figure was 90%; with `CC[C@H](C)[C@H](NC(=O)[C@@H]1CCCN1C(=O)[C@H](C)NC(=O)[C@H](CC(=O)O)NC(=O)[C@H](Cc1c[nH]cn1)NC(=O)[C@@H](N)CSSC[C@H](NC(C)=O)C(=O)N[C@@H](Cc1ccc(O)cc1)C(=O)NCC(=O)N[C@@H](CCCNC(=N)N)C(=O)N[C@@H](CCCCN)C(=O)N[C@@H](CCCCN)C(=O)N[C@@H](CCCNC(=N)N)C(=O)N[C@@H](CCCNC(=N)N)C(=O)N[C@@H](CCC(N)=O)C(=O)N[C@@H](CCCNC(=N)N)C(=O)N[C@@H](CCCNC(=N)N)C(=O)N[C@@H](CCCNC(=N)N)C(=O)O)C(=O)NCC(=O)N[C@@H](Cc1ccc(O)cc1)C(=O)N[C@@H](CC(=O)O)C(=O)O` [KAI-9706 carrier Ac—OH cargo H—OH], 57%; with `CC[C@H](C)[C@H](NC(=O)[C@@H]1CCCN1C(=O)[C@H](C)NC(=O)[C@H](CC(=O)O)NC(=O)[C@H](Cc1c[nH]cn1)NC(=O)[C@@H](N)CSSC[C@H](NC(C)=O)C(=O)N[C@@H](Cc1ccc(O)cc1)C(=O)NCC(=O)N[C@@H](CCCNC(=N)N)C(=O)N[C@@H](CCCCN)C(=O)N[C@@H](CCCCN)C(=O)N[C@@H](CCCNC(=N)N)C(=O)N[C@@H](CCCNC(=N)N)C(=O)N[C@@H](CCC(N)=O)C(=O)N[C@@H](CCCNC(=N)N)C(=O)N[C@@H](CCCNC(=N)N)C(=O)N[C@@H](CCCNC(=N)N)C(N)=O)C(=O)NCC(=O)N[C@@H](Cc1ccc(O)cc1)C(=O)N[C@@H](CC(=O)O)C(N)=O` [KAI-9706 carrier Ac—NH2 cargo H—NH2], 90%.

Regarding `CC[C@H](C)[C@H](NC(=O)[C@@H]1CCCN1C(=O)[C@H](C)NC(=O)[C@H](CC(=O)O)NC(=O)[C@H](Cc1c[nH]cn1)NC(=O)[C@H](CSSC[C@H](N)C(=O)N[C@@H](Cc1ccc(O)cc1)C(=O)NCC(=O)N[C@@H](CCCNC(=N)N)C(=O)N[C@@H](CCCCN)C(=O)N[C@@H](CCCCN)C(=O)N[C@@H](CCCNC(=N)N)C(=O)N[C@@H](CCCNC(=N)N)C(=O)N[C@@H](CCC(N)=O)C(=O)N[C@@H](CCCNC(=N)N)C(=O)N[C@@H](CCCNC(=N)N)C(=O)N[C@@H](CCCNC(=N)N)C(=O)O)NC(C)=O)C(=O)NCC(=O)N[C@@H](Cc1ccc(O)cc1)C(=O)N[C@@H](CC(=O)O)C(N)=O` [KAI-9706 carrier H—OH cargo Ac—NH2], the fraction remaining at 0.25 h was determined as 0%.

The share remaining is what is left of the initial amount, in per cent. High values mean greater stability, low ones a greater loss.
